Data reported in patent publication US20120258980A1, “Antibacterial Agent for Drug-Resistant Bacteria, Method for Screening for Same, and Use of Same” (priority 2009, published 2012).
Converted amounts (≈) assume the structure as drawn.

System: MRSA, CA-MRSA and MSSA of Staphylococcus aureus
Test: MIC measurement, Test Example 4 (MRSA, CA-MRSA and MSSA strains)
Assay type: cell-based
Conditions: Staphylococcus aureus
Protocol: Each of the bacterial strains listed in Table 1-1 was shake-cultured at 37° C. overnight in 4 mL of a medium (Tryptical Soy Broth: TSB, product of Becton Dickinson and Company). FDA209P was used as a control.
After completion of culturing, the resultant culture was suspended in a cation-adjusted Mueller Hinton Broth (CAMHB, product of Becton Dickinson and Company). Then, the obtained bacterial culture was adjusted in absorbance with the CAMHB so that the absorbance at 578 nm of the bacterial culture was adjusted to 0.3 measured by an absorption spectrometer. In addition, the resultant bacterial culture was 500-fold diluted with the CAMHB.
Each of the 500-fold diluted, pre-cultured bacterial cultures was added at 50 μL/well to the CAMHB containing the quinolones and the nybomycins at various concentrations (50 μL/well), followed by statically culturing at 37° C. overnight.
After completion of culturing, the growth of the bacteria was visually determined based on turbidity to measure MIC in each bacterial strain.
Glycopeptides, imipenem, quinolones and nybomycins were studied for antibacterial activity against the bacterial strains listed in Table 2-1; i.e., MRSA, CA-MRSA and MSSA of Staphylococcus aureus.

[1] = ATCC 29213 / MRSA / MSSA, ATCC 29213, MSSA
[2] = FDA209P / MRSA / MSSA, FDA209P, MSSA
[3] = MRSA / MSSA / NCTC 8325, NCTC 8325, MSSA
[4] = MRSA / MSSA / USA300, USA300 FPR3757, CA-MRSA

SMILES	MIC [1]	MIC (COL, MRSA)	MIC [2]	MIC (ISA12-1, MRSA)	MIC (ISA12-2, MRSA)	MIC (ISA35-1, MRSA)	MIC (ISA37-1, MSSA)	MIC (ISA49-1, MSSA)	MIC (ISA51-1, MSSA)	MIC (ISA56-3, MRSA)	MIC (ISA58-1, MRSA)	MIC (ISA62-1, MRSA)	MIC (ISA73-1, MSSA)	MIC (KBSA32, MRSA)	MIC (KBSA34, MRSA)	MIC (KBSA72, MRSA)	MIC (KBSA96, MRSA)	MIC (KBSA171, MRSA)	MIC (KSA24, MRSA)	MIC (KSA31, MRSA)	further results
Cc1onc(-c2ccccc2)c1C(=O)N[C@@H]1C(=O)N2[C@@H]1SC(C)(C)[C@@H]2C(=O)O [OXA, oxacillin]	0.25 µg/mL (≈ 0.623 µM)	> 16 µg/mL	≤ 0.063 µg/mL	4 µg/mL (≈ 9.96 µM)	4 µg/mL (≈ 9.96 µM)	4 µg/mL (≈ 9.96 µM)	2 µg/mL (≈ 4.98 µM)	1 µg/mL (≈ 2.49 µM)	1 µg/mL (≈ 2.49 µM)	8 µg/mL (≈ 19.9 µM)	4 µg/mL (≈ 9.96 µM)	8 µg/mL (≈ 19.9 µM)	1 µg/mL (≈ 2.49 µM)	8 µg/mL (≈ 19.9 µM)	16 µg/mL (≈ 39.9 µM)	128 µg/mL (≈ 319 µM)	128 µg/mL (≈ 319 µM)	> 128 µg/mL	128 µg/mL (≈ 319 µM)	128 µg/mL (≈ 319 µM)	MIC (KSA36, MRSA): > 128 µg/mL; MIC [3]: 1 µg/mL (≈ 2.49 µM); MIC [4]: 16 µg/mL (≈ 39.9 µM); MIC (MW2, CA-MRSA): 8 µg/mL (≈ 19.9 µM); MIC (N315, MRSA): 32 µg/mL (≈ 79.7 µM)
CN[C@H](CC(C)C)C(=O)N[C@H]1C(=O)N[C@@H](CC(N)=O)C(=O)N[C@H]2C(=O)N[C@H]3C(=O)N[C@H](C(=O)N[C@H](C(=O)O)c4cc(O)cc(O)c4-c4cc3ccc4O)[C@H](O)c3ccc(c(Cl)c3)Oc3cc2cc(c3O[C@@H]2O[C@H](CO)[C@@H](O)[C@H](O)[C@H]2O[C@H]2C[C@](C)(N)[C@H](O)[C@H](C)O2)Oc2ccc(cc2Cl)[C@H]1O [VCM, vancomycin]	0.5 µg/mL (≈ 0.345 µM)	0.5 µg/mL (≈ 0.345 µM)	0.5 µg/mL (≈ 0.345 µM)	0.5 µg/mL (≈ 0.345 µM)	0.5 µg/mL (≈ 0.345 µM)	1 µg/mL (≈ 0.69 µM)	1 µg/mL (≈ 0.69 µM)	1 µg/mL (≈ 0.69 µM)	1 µg/mL (≈ 0.69 µM)	2 µg/mL (≈ 1.38 µM)	1 µg/mL (≈ 0.69 µM)	1 µg/mL (≈ 0.69 µM)	1 µg/mL (≈ 0.69 µM)	0.5 µg/mL (≈ 0.345 µM)	1 µg/mL (≈ 0.69 µM)	1 µg/mL (≈ 0.69 µM)	1 µg/mL (≈ 0.69 µM)	1 µg/mL (≈ 0.69 µM)	1 µg/mL (≈ 0.69 µM)	1 µg/mL (≈ 0.69 µM)	MIC (KSA36, MRSA): 1 µg/mL (≈ 0.69 µM); MIC [3]: 1 µg/mL (≈ 0.69 µM); MIC [4]: 1 µg/mL (≈ 0.69 µM); MIC (MW2, CA-MRSA): 0.5 µg/mL (≈ 0.345 µM); MIC (N315, MRSA): 0.5 µg/mL (≈ 0.345 µM)
